Data set [1] has as its target ATP-dependent translocase ABCB1 (Mus musculus, UniProt P21447). Nature of the data set: TP_TRANSPORTER: increase in brain concentration in mdr1a(-/-) mouse. The following applies: in vivo. It is filed as functional, organism-based.
Data set [2] has as its target ATP-dependent translocase ABCB1 (Homo sapiens, UniProt P08183). Nature of the data set: TP_TRANSPORTER: transepithelial transport (basal to apical) in Caco-2 cells. The format is functional, cell-based.

Chain of ATP-dependent translocase ABCB1 (Homo sapiens, UniProt P08183) (P08183 whole entry): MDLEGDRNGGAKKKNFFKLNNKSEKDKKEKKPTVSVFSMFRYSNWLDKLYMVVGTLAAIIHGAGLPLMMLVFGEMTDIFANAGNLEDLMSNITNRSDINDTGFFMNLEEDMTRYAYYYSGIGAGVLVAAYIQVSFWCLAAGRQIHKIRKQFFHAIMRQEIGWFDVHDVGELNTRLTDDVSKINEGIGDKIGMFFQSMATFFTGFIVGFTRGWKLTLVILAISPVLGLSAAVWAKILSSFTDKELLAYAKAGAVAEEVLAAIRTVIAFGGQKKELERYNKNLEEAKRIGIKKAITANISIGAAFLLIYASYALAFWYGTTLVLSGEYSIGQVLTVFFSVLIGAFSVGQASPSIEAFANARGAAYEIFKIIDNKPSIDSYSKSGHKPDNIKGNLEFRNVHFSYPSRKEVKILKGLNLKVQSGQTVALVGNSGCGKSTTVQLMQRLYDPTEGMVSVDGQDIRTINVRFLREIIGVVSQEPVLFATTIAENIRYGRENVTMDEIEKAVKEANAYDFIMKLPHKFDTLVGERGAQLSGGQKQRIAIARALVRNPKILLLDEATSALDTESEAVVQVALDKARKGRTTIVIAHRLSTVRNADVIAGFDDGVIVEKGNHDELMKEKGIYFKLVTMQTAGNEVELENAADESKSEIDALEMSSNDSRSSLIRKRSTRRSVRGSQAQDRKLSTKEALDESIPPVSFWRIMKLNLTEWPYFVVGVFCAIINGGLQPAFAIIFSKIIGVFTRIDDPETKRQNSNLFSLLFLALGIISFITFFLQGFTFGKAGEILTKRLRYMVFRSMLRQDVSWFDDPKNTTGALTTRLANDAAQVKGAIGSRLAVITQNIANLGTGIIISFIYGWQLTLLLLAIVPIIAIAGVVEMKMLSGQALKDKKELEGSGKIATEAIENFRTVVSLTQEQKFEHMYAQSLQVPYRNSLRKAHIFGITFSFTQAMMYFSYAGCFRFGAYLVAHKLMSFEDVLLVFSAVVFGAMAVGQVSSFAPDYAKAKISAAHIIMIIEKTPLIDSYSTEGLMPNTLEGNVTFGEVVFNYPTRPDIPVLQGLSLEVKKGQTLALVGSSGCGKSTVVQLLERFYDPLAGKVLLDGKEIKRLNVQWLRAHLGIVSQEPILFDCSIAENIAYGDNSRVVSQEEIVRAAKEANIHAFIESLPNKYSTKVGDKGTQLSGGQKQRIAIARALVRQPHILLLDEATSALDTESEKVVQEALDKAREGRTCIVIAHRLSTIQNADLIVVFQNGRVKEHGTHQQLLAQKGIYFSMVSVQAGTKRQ
Chain of ATP-dependent translocase ABCB1 (Mus musculus, UniProt P21447) (P21447 whole entry): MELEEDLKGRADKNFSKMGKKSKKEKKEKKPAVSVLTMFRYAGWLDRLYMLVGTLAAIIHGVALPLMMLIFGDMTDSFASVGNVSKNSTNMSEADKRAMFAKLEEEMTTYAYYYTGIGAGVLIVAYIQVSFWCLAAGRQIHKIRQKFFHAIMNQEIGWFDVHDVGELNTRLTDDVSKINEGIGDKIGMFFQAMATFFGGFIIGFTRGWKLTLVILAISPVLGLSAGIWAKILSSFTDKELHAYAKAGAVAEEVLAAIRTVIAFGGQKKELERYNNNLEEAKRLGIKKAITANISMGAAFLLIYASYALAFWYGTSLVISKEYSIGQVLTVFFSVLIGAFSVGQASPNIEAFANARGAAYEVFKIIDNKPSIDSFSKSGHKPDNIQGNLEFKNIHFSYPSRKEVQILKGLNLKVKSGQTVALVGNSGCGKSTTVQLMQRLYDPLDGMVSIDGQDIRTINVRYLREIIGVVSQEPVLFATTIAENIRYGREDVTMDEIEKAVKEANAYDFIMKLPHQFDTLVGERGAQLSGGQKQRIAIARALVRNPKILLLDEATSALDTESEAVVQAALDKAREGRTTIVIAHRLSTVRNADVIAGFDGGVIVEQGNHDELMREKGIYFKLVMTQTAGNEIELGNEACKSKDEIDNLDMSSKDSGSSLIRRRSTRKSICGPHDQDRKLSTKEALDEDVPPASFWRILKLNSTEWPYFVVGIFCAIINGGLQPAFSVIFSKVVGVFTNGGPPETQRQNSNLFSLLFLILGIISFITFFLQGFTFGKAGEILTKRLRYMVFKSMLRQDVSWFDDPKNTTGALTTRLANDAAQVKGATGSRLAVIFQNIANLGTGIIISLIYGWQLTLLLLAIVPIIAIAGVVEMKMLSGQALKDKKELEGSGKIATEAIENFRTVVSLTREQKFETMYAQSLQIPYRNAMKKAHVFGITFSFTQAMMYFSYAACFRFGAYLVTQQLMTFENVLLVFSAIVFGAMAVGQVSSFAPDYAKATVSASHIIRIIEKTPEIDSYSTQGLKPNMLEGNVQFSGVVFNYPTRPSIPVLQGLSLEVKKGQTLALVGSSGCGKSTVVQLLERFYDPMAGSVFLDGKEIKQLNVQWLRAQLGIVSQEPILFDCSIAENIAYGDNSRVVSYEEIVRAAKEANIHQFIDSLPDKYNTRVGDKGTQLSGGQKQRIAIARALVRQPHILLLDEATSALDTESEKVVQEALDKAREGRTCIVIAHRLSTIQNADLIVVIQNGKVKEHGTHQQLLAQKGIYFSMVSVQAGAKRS

In the case of `Cc1nnc2n1-c1sc(CCC(=O)N3CCOCC3)cc1C(c1ccccc1Cl)=NC2` [APAFANT], the Activity result in data set [1] and in data set [2] was “substrate [+]” throughout.

These data come from ChEMBL document CHEMBL2074496, “Altered drug disposition of the platelet activating factor antagonist apafant in mdr1a knockout mice” (Eur J Pharm Sci, 2002).
